From US20260027096A1, “PHD INHIBITORS” (Oxford University Innovation Limited, priority 2023, published 2026) come the findings set out here.

For data set [1], the system named is human multiple myeloma cell lines. Put plainly: Apoptosis of multiple myeloma cell lines. Type of data set: cell-based. The settings on record: 50 μM, versus the control. As to the method: Apoptosis of multiple human MM cell lines derived from different patients (AWO^WT, H292, KMS12, RPMI, U266 and MM.1S) treated with vehicle control, 50 μM Daprodustat (2). Data represent mean±SEM; * p<0.05; ** p<0.01, *** p<0.001.
(§1) Viable cells were counted by trypan blue exclusion at the indicated time points. To analyse cells undergoing apoptosis, cells were suspended in binding buffer containing PE-conjugated Annexin-V or FITC-conjugated Annexin-V, and either PI or DAPI.

For data set [2], the system named is mouse iMLL-AF9- and Meis1Hoxa9-transformed AML cells. Put plainly: Proliferation and apoptosis of murine iMLL-AF9 and Meis1Hoxa9 AML cells. Type of data set: cell-based. The conditions noted are these: 50 μM.
Text: as §1
To determine consequences of Daprodustat (2) and IOX5 (68, example 46) treatment on AML cells driven by the MLL-AF9→MEIS1/HOXA9 axis, mouse iMLL-AF9-and Meis1Hoxa9-transformed AML cells were employed, as well as human THP-1 cells, which harbour the MIL-AF9 translocation. […] Thus, providing compelling evidence that PHD inhibition compromises AML cells driven by the MLL-AF9→MEIS1/HOXA9 axis.

Data set [3] has as its system THP-1 cells in NBSGW recipient mice. Put plainly: THP-1 xenotransplantation in NBSGW mice. In kind it is in vivo. The settings on record: 30 mg/kg i.p. twice daily for 21 days. An excerpt:
(§2) (A) 100,000 THP-1 cells were transplanted into NBSGW recipient mice. […] (B-C) Percentage of human CD45+CD33+ and human CD45+CD14+ cells in the BM and spleen, respectively (n=4-5). (D) 100,000 OCI-AML3 cells were transplanted into NBSGW recipient mice. […] (E) Percentage of human CD45+CD33+CD14+ cells in the liver, BM and PB, respectively (n=3-7). (F) 2,000 LSK cells from iMLL-AF9;Control mice were sorted and transplanted into irradiated recipient mice. […] (H) LDA in secondary recipients transplanted with indicated doses of CD45.2+BM cells from primary recipients (n=9-10 per dose). (I) Plot showing Poisson statistical analysis. Circles represent the percentages of negative mice for each cell dose, triangles represent any data values with zero negative responses. Solid lines indicate the best-fit linear model, and dotted lines represent 95% CIs. LSC frequencies were calculated using the ELDA software 121. (J) Steady-state analyses of 8-to 10-week-old C57B16 mice treated with IOX5 or vehicle control 2× daily via i.p. injection for 14 days (n=5-7). (K) PB counts (n=6). (L) Total BM cellularity (n=5-9). (M) Total numbers of HSC, MPP, HPC-1 and HPC-2 populations (n=5-7). Data represent mean±SEM; * p<0.05; ** p<0.01; *** p<0.001; **** p<0.0001.
100,000 THP-1 cells, 100,000 OCI-AM3 cells or 100,000 MV411 cells (for combination experiments) were tail vein injected into non-irradiated 10-to 12-week-old mixed gender NBSGW mice and began drug treatment 14 days after transplantation. […] Mice were culled 5 weeks after transplantation.
Next, it was examined whether IOX (68, example 46)5 has a therapeutic impact on MLL-AF9-independent AML. […] Therefore, IOX5 (68, example 46) compromises both MLL-rearranged and non-MLL AML in vivo.

The subject of data set [4] is iMLL-AF9 AML cells. Put plainly: RNA-seq analysis of iMLL-AF9 AML cells. Type of data set: cell-based, mouse. As for the experimental part: Total RNA was extracted from 500,000 leukaemic cells using RNeasy Plus Universal Mini Kit (QIAGEN, Cat. No. 73404) following the manufacture's protocol. The RNA integrity number (RIN) was determined by High Sensitivity RNA Screen Tape analysis (Agilent, Cat. No. 5067) and all RIN was >8. High sensitivity Libraries for RNA-seq were prepared from 500 ng of total RNA using the NEBNext® Ultra™ II Directional RNA Library Prep Kit for Illumina® (NEB, Cat. No. E7760) with NEBNext Poly(A) mRNA Magnetic Isolation Module (NEB, Cat. No. E7490) following the manufacture's protocol. Nine cycles of PCR were performed to amplify libraries and the pooled library was sequenced on illumina NextSeq 500 with 85 bp single-end mode at EMBL GeneCore facility.
For analysis of differentially expressed genes, adapters were trimmed with cutadapt (version 1.18) using options: -a […]-m 50, and processed reads were mapped to GRCm38 genome_tran (release 84) with HISAT2 (version 2.2.1 (Nature Methods volume 12, pages 357-360 (2015), https://www.nature.com/nmeth)) using following option: —qc-filter. Mapped reads per gene were counted with htseq-count (HTSeq version 2.0.1 (Bioinformatics, Volume 38, Issue 10, 15 May 2022, Pages 2943-2945)) providing GTF file and differentially expressed genes were analysed using DESeq2 (version 1.30.1). […]

The subject of data set [5] is OCI-AML3 cells in NBSGW recipient mice. Put plainly: OCI-AML3 xenotransplantation in NBSGW mice. In kind it is in vivo, mouse. The settings on record: i.p. twice daily for 21 days.
Text: as §2, with “p<0.0001. […]” for “p<0.0001.”

For data set [6], the system named is Meis1/Hoxa9-transformed AML cells lacking both Hif1α and Hif2α and control cells. The experiment in a line: Proliferation of control and Hif1α/Hif2α-deficient Meis1/Hoxa9 AML cells. Type of data set: cell-based, mouse. The settings on record: 50 μM.
Text: To investigate whether HIF-α mediates the anti-leukaemic effects of PHD inhibition, Meis1/Hoxa9-transformed AML cells lacking both Hif1α and Hif2α and control cells were employed (Vukovic et al., 2015).
Data set [7] concerns HIF-2α in MOLM13, OCI-AML3, MV411 and THP-1 cells. The experiment in a line: Western blot of HIF-2α in human AML cell lines. Type of data set: cell-based. The settings on record: 48 hrs. As to the method:
Equipped with currently available PHD inhibitors and newly generated IOX5 (68, example 46), the impact of pharmacological PHD inhibition on AML cells was assessed. […] Thus, while PHD inhibition consistently stabilises HIF-1α protein across all tested AML cell lines, HIF-2α stabilisation is variable and cell line-specific.
(In general: Immunoblotting shows a protein as a band on a membrane.)

As for `O=C(O)CNC(=O)c1c(O)n(C2CCCCC2)c(=O)n(C2CCCCC2)c1=O` [Daprodustat, daprodustat, reference compound], in data set [1], the apoptosis result is reported as “significant apoptosis”. For the same compound, in data set [2], the apoptosis entry is given as “induced their apoptosis” and the proliferation entry is “compromised their proliferative capacity”. In data set [3], the leukaemic burden entry is listed as “significantly reduced leukaemic burden” and the tolerability of treatment result is recorded as “well tolerated”.

Turning to `O=C(NCC1CCC(C(F)(F)F)CC1)c1c[nH]c(-n2cccn2)cc1=O` (centres unmarked) [IOX5], in data set [4] (50 μM vs control), the “gene set enrichment analysis (GSEA) of deregulated genes” value is “significant up-regulation of hypoxia signature, HIF-1 signalling, and activation of HIF-inducible pathways”. Moreover, in data set [4] (murine cells), the BNIP3 transcript expression result is “significantly upregulated”. Besides, the leukaemic burden result in data set [5] and in data set [3] was “significantly reduced leukaemic burden” throughout. The “proliferation of control vs Hif1α/Hif2α-deficient cells” value in data set [6] is listed as “control AML cells manifest substantially reduced proliferation, while Hif½αDKO cells are refractory”. The “HIF-2α protein level (western blot)” value in data set [7] (MOLM13 and MV411 cells) is “did not induce any HIF-2α stabilisation”; in data set [7] (OCI-AML3 and THP-1 cells) it was “stabilised HIF-2α protein levels”. In addition, the apoptosis result in data set [2] is “induced their apoptosis”. For the same compound, in data set [2], the proliferation result is on record as “compromised their proliferative capacity”.
